Results as given in patent US9170261B2, “Peptide specific for ovarian cancer and applications” (National Tsing Hua University, priority 2013, dated 2015).

Assays:
[1] = test system: BG1 ovarian cancer cell line; assay: Binding activity (connectivity) of peptide-conjugated magnetic beads to cancer cells; set-up: species or system Human; conditions: 10 ng/mL peptide
Protocol: Human ovarian cancer cell line, BG1, was used. BG1 was cultured in DMEM/F12 medium containing 10% Fetal Bovine Serum (FBS). Other conditions of the culture are 37° C. and 5% CO2 in moisture atmosphere.
(§1) 10 ng/mL of the peptide SEQ ID NO:1 of the present invention was used to examine the binding activity to different cancer cells, including pancreatic cancer cell line (BxPC3), colon cancer cell line (HCT8), cervical cancer cell line (HeLa), and liver cancer cell line (HepG2).

[2] = test system: cervical cancer cell line (HeLa); assay: as above; conditions: 10 ng/mL peptide
Protocol: (§2) Other cell lines were used in the embodiments of the present invention including pancreatic cancer cell line (BxPC3), colon cancer cell line (HCT8), cervical cancer cell line (HeLa), and liver cancer cell line (HepG2).
as §1

[3] = test system: colon cancer cell line (HCT8); assay: as above; conditions: 10 ng/mL peptide
Protocol: as §2, §1

[4] = test system: liver cancer cell line (HepG2); assay: as above; conditions: 10 ng/mL peptide
Protocol: as §2, §1

[5] = test system: pancreatic cancer cell line (BxPC3); assay: as above; conditions: 10 ng/mL peptide
Protocol: as §2, §1

ovarian cancer cells = assay: Capturing test with peptide-conjugated magnetic beads, microscopic observation; assay type: binding; conditions: 10^5 ovarian cancer cells
Protocol: (A) magnetic beads without peptide conjugation; (B) magnetic beads conjugated to 10 μg/mL of peptide; (C) magnetic beads conjugated to 10 ng/mL of peptide; (D) magnetic beads conjugated to 10 ρg/mL of peptide.
Different concentrations of the peptide of the present invention were conjugated to magnetic beads, wherein said concentrations are 10 μg/mL, 10 ng/mL, and 10 ρg/mL. The capturing test was performed using 10^5 ovarian cancer cells.

other cancer cells = assay: Binding activity to other cancer cells (average over non-ovarian lines)
Protocol: as §1

For “N′-MPHPTKNFDLYV-C′ [peptide of the present invention]”, the “Connectivity (%)” value [1] was “about 80%”, the “Connectivity (%)” value ([1]; listed as peptide) was “more than 80%” and the “Connectivity (%)” value ([1]; listed as peptide of present invention) was 80.38 ± 2.69%. For the same substance, the “Connectivity (%)” value [2] was 26.02 ± 2.01%, the “Connectivity (%)” value [3] was 22.37 ± 1.89% and the “Connectivity (%)” value [4] was 15.77 ± 5.25%. For the same substance, the “Connectivity (%)” value [5] was 12.89 ± 0.21%, the “connection to ovarian cancer cells under microscopic observation” value (ovarian cancer cells; peptide 10 μg/mL, 10 ng/mL and 10 ρg/mL conjugated to magnetic beads) was “able to connect to ovarian cancer cells” and the “peptide concentration required to efficiently capture ovarian cancer cells” value (ovarian cancer cells; peptide conjugated to magnetic beads) was 10 ρg/mL. For the same substance, the “average connectivity to other cancer cells” value (other cancer cells; 10 ng/mL peptide, average of non-ovarian cancer cell lines) was “about 20%” and the “binding activity to other cancers” value (other cancer cells; pancreatic, colorectal, cervical or liver cancer) was “negligible binding activity”.
